{"source": "patent US20080032918A1", "about": "“Mast cell-derived renin” (Cornell Research Foundation, Inc., priority 2003, published 2008)", "key": {"Na+/H+ exchanger [1]": {"system": "Na+/H+ exchanger", "assay": "Na+/H+ exchanger activity in BCECF-loaded SH-SY5Y-AT1A cells", "assay_type": "cell-based, human", "description": "Similarly, Na^+/H^+ exchanger activity was measured in response to angiotensin II at the individual cell level in BCECF-loaded SH-SY5Y-AT1A cells. […] Exposing the cells to BAPTA-AM (10 μM) prior to angiotensin II, prevented the angiotensin II-induced increase in Na^+/H^+ exchanger activity."}, "[2]": {"system": "cardiac sympathetic nerve endings", "assay": "angiotensin II-evoked norepinephrine release from cardiac sympathetic nerve endings", "settings": "for decrease of angiotensin II-induced norepinephrine release / effect on norepinephrine release induced by angiotensin II (FIG. 20): EIPA 30 μM, U-73122 1 μM; for decrease of angiotensin II-induced norepinephrine release: DMI 300 nM; for effect on norepinephrine release induced by angiotensin II (FIG. 20): DMI 300 μM", "procedure": "Briefly, male Hartley guinea pigs were anesthetized with CO2 vapor and then exsanguinated. Hearts were perfused through the aorta for 15 min at constant pressure with Ringer's solution at 37° C. […] Hearts were minced in 0.32 M sucrose containing 1 mM EGTA. The minced tissue was then digested with 75 mg collagenase per 10 ml HBS per gm for 1 hr at 37° C. After low speed centrifugation the resulting pellet were suspended in 10 volumes of 0.32 M sucrose and homogenized with a Teflon/glass homogenizer. The homogenate was centrifuged at 650g for 10 min, the pellet was re-homogenized and the homogenate was centrifuged again. The pellet containing cellular debris was discarded, the supernatants from the last two spins were combined, the pooled supernatant was equally subdivided into 4 to 8 tubes and re-centrifuged for 20 min at 20,000g at 4° C. This pellet contains cardiac sympathetic nerve endings. The pellet was resuspended either in HEPES-buffered saline (HBS; 500 μl, normoxic conditions) or in glucose-free HBS, which contained the reducing agent sodium dithionite (500 μl, ischemic conditions), and incubated in the absence or presence of angiotensinogen (1 hr) or other agents for 20 min at 37° C. prior to ischemia (see below). Each suspension was used only once as an independent sample.\nNorepinephrine assay: Coronary effluent and synaptosome supernatant will be assayed for NE by HPLC with electrochemical detection (ESA). […] The detection limit is about 0.2 pmol."}, "SH-SY5Y-AT1A cells [3]": {"system": "SH-SY5Y-AT1A cells", "assay": "[3H]MPP+ release from SH-SY5Y-AT1A cells", "quoted_text": "Efflux was arrested after 10-min exposure to angiotensin II."}, "SH-SY5Y-AT1A cells [4]": {"system": "SH-SY5Y-AT1A cells", "assay": "intracellular calcium in Fura-2 loaded SH-SY5Y-AT1A cells", "assay_type": "cell-based, human", "description": "The next series of experiments were used to outline the major signaling steps in angiotensin II-evoked release of norepinephrine from sympathetic nerve endings. In particular, experiments were designed to ascertain whether stimulation of PLC might result in an increase in intracellular calcium via IP3 generation. Intracellular calcium (Cai) was measured at the individual cell level using Fura-2 loaded SH-SY5Y-AT1A cells (McDonald et al., Neurosci. Lett. 199: 115-118, 1995; Silver et al., Proc. Natl. Acad. Sci. USA 99: 501-506, 2002).\nAs discussed above, PLC activation may be an early signaling step in mediating this angiotensin II-induced Ca^2+ transient. The PLC inhibitor U-73122 (1 μM) was used to verify this hypothesis. FIG. 21B is a representative trace from one Fura-2 loaded SH-SY5Y-ATIA cell pre-exposed to U-73122."}, "human lung mast cells": {"system": "human lung mast cells", "settings": "cited from earlier work"}, "[5]": {"system": "cardiac sympathetic nerve endings", "assay": "norepinephrine release from isolated cardiac sympathetic nerve endings incubated with angiotensinogen", "assay_type": "cell-based, guinea pig", "source_text": "Preparation ofguinea-pig sympathetic nerve endings: Cardiac sympathetic nerve endings were isolated from guinea-pig hearts as previously described (Seyedi et al., J Pharmacol Exp Ther 290: 656-663, 1999; Seyedi et al., Circ. Res. 81: 774-784, 1997). Spontaneously beating hearts were isolated as previously described by the inventors (Hatta et al., J. Pharmacol. Exp. Ther. 288: 919-927, 1999; Park et al., Circ. Res. 71: 992-1001, 1992). Briefly, male Hartley guinea pigs were anesthetized with CO2 vapor and then exsanguinated. Hearts were perfused through the aorta for 15 min at constant pressure with Ringer's solution at 37° C. (Park et al., Circ. Res. 71: 992-1001, 1992) to exclude blood from the coronary circulation. Hearts were minced in 0.32 M sucrose containing 1 mM EGTA. The minced tissue was then digested with 75 mg collagenase per 10 ml HBS per gm for 1 hr at 37° C. After low speed centrifugation the resulting pellet were suspended in 10 volumes of 0.32 M sucrose and homogenized with a Teflon/glass homogenizer. The homogenate was centrifuged at 650g for 10 min, the pellet was re-homogenized and the homogenate was centrifuged again. The pellet containing cellular debris was discarded, the supernatants from the last two spins were combined, the pooled supernatant was equally subdivided into 4 to 8 tubes and re-centrifuged for 20 min at 20,000g at 4° C. This pellet contains cardiac sympathetic nerve endings. The pellet was resuspended either in HEPES-buffered saline (HBS; 500 μl, normoxic conditions) or in glucose-free HBS, which contained the reducing agent sodium dithionite (500 μl, ischemic conditions), and incubated in the absence or presence of angiotensinogen (1 hr) or other agents for 20 min at 37° C. prior to ischemia (see below). Each suspension was used only once as an independent sample.\nNorepinephrine assay: Coronary effluent and synaptosome supernatant will be assayed for NE by HPLC with electrochemical detection (ESA). […]"}, "cardiac mast cells": {"system": "cardiac mast cells", "assay": "renin in coronary effluent of normoxic Langendorff-perfused hearts challenged with 48/80", "parameters": "species or system guinea pig", "settings": "lodoxamide 10 μM or BILA 2157 100 nM prior to 48/80", "description": "Renin was measured in the coronary effluent of normoxic Langendorff-perfused guinea-pig hearts, ex vivo. […] When hearts were perfused with the mast-cell stabilizer lodoxamide (FIG. 9B) or the renin inhibitor BILA2157 prior to 48/80 challenge (FIGS. 9A and B), renin overflow was abolished."}, "guinea-pig hearts": {"system": "guinea-pig hearts", "assay": "ischemia-reperfusion in guinea pig hearts ex vivo (Langendorff)", "settings": "20-min global ischemia, 45-min reperfusion, lodoxamide 10 μM; for ventricular fibrillation during reperfusion: BILA2157 100 nM", "description": "Ischemia-reperfusion in guinea pig hearts ex vivo: Guinea-pig hearts will be perfused for 30 min prior to ischemia. Inamura et al., Circ. Res. 78: 475-481 (1996). Normothermic 20-min global ischemia will be induced by complete cessation of coronary perfusion, followed by 45-min reperfusion. Coronary effluent will be assayed for renin activity and NE.\nGuinea-pig hearts were perfused ex vivo at constant pressure in a Langendorff apparatus and subjected to 20-min. stop-flow global ischemia, followed by 45-min. reperfusion (Hatta, E., R. Maruyama, S. J. Marshall, M. Imamura, and R. Levi. Bradykinin promotes ischemic norepinephrine release in guinea pig and human hearts. J. Pharmacol. Exp. Ther. 288: 919-927 (1999)). Surface ECG and coronary flow were continuously monitored; the coronary effluent was assayed for renin activity (i.e., ANG I generated as described herein). There was no detectable renin in the coronary effluent prior to ischemia. With reperfusion, there was significant renin overflow into the coronary effluent accompanied by ventricular fibrillation (VF) (FIG. 12).\nTraces in the left panels were recorded at the end of the equilibration period prior to ischemia, showing normal sinus rhythm."}, "[6]": {"system": "isolated normoxic guinea pig hearts", "assay": "chronotropic response and norepinephrine overflow in normoxic isolated hearts challenged with 48/80", "settings": "BILA 2157 100 nM, lodoxamide 30 μM", "source_text": "These findings indicate that cardiac mast cells are capable of releasing active renin, which then leads to local formation of ANG II causing norepinephrine exocytosis."}, "Na+/H+ exchanger [7]": {"system": "Na+/H+ exchanger", "assay": "Na+/H+ exchanger activity (acid pulse protocol) in cardiac sympathetic nerve endings", "assay_type": "cell-based, guinea pig", "settings": "angiotensin II 10 nM; for increase in Na+/H+ exchanger activity over control: norepinephrine 1 μM", "description": "Na^+/H^+ exchanger activity was assayed by measuring the rate of Na^+-dependent intracellular alkalinization in response to an acid load (NH4Cl). An example of the “acid pulse protocol” used to show Na^+/H^+exchanger activity in dye-loaded (BCECF-loaded) sympathetic nerve endings from guinea pig heart is shown in FIG. 18A. This protocol was performed under HEPES-buffered conditions. All of the solutions perfusing the tissue were osmotically balanced using N-methyl-D-glucamine substitution as previously described (Silver et al., Am. J. Physiol. Renal Physiol. 279: F195-F202, 2000; Silver et al., Am. J. Physiol. 275: F94-102, 1998). As shown in the representative tracing in FIG. 18A, guinea-pig heart sympathetic nerve endings, attached to a cover slip and pre-loaded with BCECF to monitor intracellular pH, were initially bathed in a balanced salt solution (Na Ringer's solution).\nThe slope of this alkalinization of Na^+/H^+ exchanger activity, represented by the dashed line in FIG. 18A, was 0.04 pH units/min. […] Mean Na^+/H^+ exchanger activities measured in cardiac sympathetic nerve endings in this pilot study are compared in FIG. 18C."}}, "note": "Entries after “also recorded” stand apart in the source; their conditions may differ.", "data": [{"compound": "CC(=O)OCOC(=O)CN(CC(=O)OCOC(C)=O)c1ccccc1OCCOc1ccccc1N(CC(=O)OCOC(C)=O)CC(=O)OCOC(C)=O", "note": "[BAPTA-AM]", "values": [{"measurement": "effect on angiotensin II-induced increase in Na+/H+ exchanger activity", "setting": "Na+/H+ exchanger [1]; 10 μM prior to angiotensin II 10 nM", "value": "prevented"}]}, {"compound": "CNCCCN1c2ccccc2CCc2ccccc21", "note": "[DMI, desipramine]", "values": [{"measurement": "decrease of angiotensin II-induced norepinephrine release", "setting": "[2]", "value": "about 50%"}, {"measurement": "effect on norepinephrine release induced by angiotensin II (FIG. 20)", "setting": "[2]; angiotensin II 100 nM", "value": "blocked"}]}, {"compound": "CCN(c1nc(N)c(C(=O)N=C(N)N)nc1Cl)C(C)C", "note": "[EIPA, 5-(N-ethyl-N-isopropyl)-amiloride]", "values": [{"measurement": "decrease of angiotensin II-induced norepinephrine release", "setting": "[2]", "value": "about 50%"}, {"measurement": "effect on norepinephrine release induced by angiotensin II (FIG. 20)", "setting": "[2]; angiotensin II 100 nM", "value": "blocked"}]}, {"compound": "CCCCCCCCCCCCCC(=O)O[C@@H]1[C@@H](C)[C@@]2(O)[C@@H](C=C(CO)C[C@]3(O)C(=O)C(C)=C[C@@H]23)[C@@H]2C(C)(C)[C@]12OC(C)=O", "note": "[PMA, phorbol 12-myristate 13-acetate]", "values": [{"measurement": "increase in the releasing effect of angiotensin II", "setting": "SH-SY5Y-AT1A cells [3]; 8-min incubation with PMA", "value": 3, "unit": "fold"}]}, {"compound": "COc1ccc2c(c1)CC[C@@H]1[C@@H]2CC[C@]2(C)[C@@H](NCCCCCCN3C(=O)C=CC3=O)CC[C@@H]12", "note": "[U-73122]", "values": [{"measurement": "decrease of angiotensin II-induced norepinephrine release", "setting": "[2]", "value": "about 60%"}, {"measurement": "effect on norepinephrine release induced by angiotensin II (FIG. 20)", "setting": "[2]; angiotensin II 100 nM", "value": "blocked"}, {"measurement": "effect on angiotensin II-induced intracellular calcium transient", "setting": "SH-SY5Y-AT1A cells [4]; U-73122 1 μM", "value": "prevented"}]}, {"compound": "CC(=O)OC[C@H]1O[C@@H]([S-])[C@H](OC(C)=O)[C@@H](OC(C)=O)[C@@H]1OC(C)=O.CCP(CC)CC.[Au+]", "note": "[auranofin]", "values": [{"measurement": "inhibition of human lung mast cell release (histamine)", "setting": "human lung mast cells", "value": "inhibited"}]}, {"compound": "O=C(O)c1cc(=O)c2c(OCC(O)COc3cccc4oc(C(=O)O)cc(=O)c34)cccc2o1", "note": "[disodium cromoglycate]", "values": [{"measurement": "inhibition of human lung mast cell release (histamine)", "setting": "human lung mast cells", "value": "poorly inhibit"}]}, {"compound": "C[C@H](N[C@@H](CCc1ccccc1)C(=O)O)C(=O)N1CCC[C@H]1C(=O)O", "note": "[enalaprilat]", "values": [{"measurement": "effect on 48/80 potentiation of norepinephrine release", "setting": "[5]; nerve endings incubated with BILA2157 10 nM, enalaprilat 30 nM or EXP 3174 10 nM", "value": "abolished"}]}, {"compound": "CC(Cc1ccc(O)cc1)NCC(O)c1cc(O)cc(O)c1", "note": "(stereo not drawn) [fenoterol]", "values": [{"measurement": "inhibition of human lung mast cell release (histamine)", "setting": "human lung mast cells", "value": "most potent global inhibitors"}]}, {"compound": "N#Cc1cc(NC(=O)C(=O)O)c(Cl)c(NC(=O)C(=O)O)c1", "note": "[lodoxamide]", "values": [{"measurement": "norepinephrine release when hearts perfused with stabilizer prior to 48/80", "setting": "[5]; lodoxamide 10 μM", "value": "markedly attenuated"}, {"measurement": "renin overflow into coronary effluent after 48/80 challenge", "setting": "cardiac mast cells", "value": "abolished; also recorded: markedly diminished"}, {"measurement": "ventricular fibrillation during reperfusion", "setting": "guinea-pig hearts", "value": "no ventricular fibrillation; also recorded: prevent ventricular fibrillation"}, {"measurement": "ventricular fibrillation during reperfusion", "setting": "guinea-pig hearts; listed as Lodoxamide", "value": "prevented ventricular fibrillation"}, {"measurement": "renin overflow into coronary effluent on reperfusion", "setting": "guinea-pig hearts; BILA 2157 100 nM", "value": "no such increase occurs; also recorded: disappeared from the coronary effluent; also recorded: prevented renin release"}, {"measurement": "chronotropic response to 48/80", "setting": "[6]", "value": "markedly abbreviated; also recorded: diminishes the chronotropic response"}]}, {"compound": "CCCc1c2oc(C(=O)O)cc(=O)c2cc2c(=O)cc(C(=O)O)n(CC)c12", "note": "[nedocromil sodium]", "values": [{"measurement": "inhibition of human lung mast cell release (histamine)", "setting": "human lung mast cells", "value": "poorly inhibit"}]}, {"compound": "NC[C@H](O)c1ccc(O)c(O)c1", "note": "[norepinephrine]", "values": [{"measurement": "increase in Na+/H+ exchanger activity over control", "setting": "Na+/H+ exchanger [7]", "value": "about 3 fold"}]}, {"compound": "angiotensin II (DRVYIHPF; Angiotensin-2; UniProt P01019 25-32, looked up) [peptide agonist of angiotensin receptors]", "values": [{"measurement": "increase in MPP+ release above basal levels", "setting": "SH-SY5Y-AT1A cells [3]; 10-min exposure", "value": 20, "unit": "%"}, {"measurement": "increase in norepinephrine release above basal level", "setting": "[2]; angiotensin II 100 nM", "value": 27, "unit": "%"}, {"measurement": "increase in Na+-dependent intracellular pH recovery rate", "setting": "Na+/H+ exchanger [1]; angiotensin II 10 nM", "value": 2.5, "unit": "fold"}, {"measurement": "intracellular calcium after angiotensin II", "setting": "SH-SY5Y-AT1A cells [4]; angiotensin II 10 nM, from about 60 nM basal", "value": 220, "unit": "nM"}, {"measurement": "rate of Na+-dependent intracellular alkalinization", "setting": "Na+/H+ exchanger [7]; control 0.04", "value": 0.19, "unit": "pH units/min"}, {"measurement": "increase in Na+/H+ exchanger activity over control", "setting": "Na+/H+ exchanger [7]", "value": "about 6 fold"}]}]}
